{
  "source": "patent US11883526B2",
  "about": "(priority 2019, dated 2024)",
  "system": "patients with treatment-resistant depression (TRD)",
  "assay": "Adverse events (Example 7)",
  "assay_type": "in vivo, human",
  "description": "Adverse events were monitored throughout the study. Other safety assessments (i.e., laboratory tests, vital signs, physical examination) were performed at pre-specified time points. Vital signs, the Clinician Administered Dissociative States Scale (CADSS; Bremner, “Measurement of dissociative states with the clinician-administered dissociative states scale (CADSS)”, J. Traumatic Stress, 1998, 11(1):125-136), and the 4-item positive symptom subscale from the Brief Psychiatric Rating Scale (BPRS; Overall, “The Brief Psychiatric Rating Scale. Psychological Reports”, 1962, 10:799-812) were assessed pre-dose, at 40 minutes, and 2 hours post-dose.\nSafety data were analyzed in Period 1, Period 2, double-blind, and open-label data sets, for all subjects receiving at least 1 dose of study medication.",
  "data": [
    {"smiles": "CN[C@]1(c2ccccc2Cl)CCCCC1=O", "note": "[esketamine, (S)-2-(2-chlorophenyl)-2-(methylamino)cyclohexanone]", "values": [
      {"measurement": "Feeling abnormal, % of participants", "setting": "double-blind, 84 mg", "value": "(6) %"},
      {"measurement": "Feeling abnormal, number of participants", "setting": "double-blind, 84 mg", "value": 1},
      {"measurement": "Headache, % of participants", "setting": "double-blind, 84 mg", "value": "(18) %"},
      {"measurement": "Headache, number of participants", "setting": "double-blind, 84 mg", "value": 3},
      {"measurement": "Hypersomnia, number of participants", "setting": "double-blind, 84 mg", "value": 0},
      {"measurement": "Hypertension, % of participants", "setting": "double-blind, 84 mg", "value": "(6) %"},
      {"measurement": "Hypertension, number of participants", "setting": "double-blind, 84 mg", "value": 1},
      {"measurement": "Hypoesthesia oral, % of participants", "setting": "double-blind, 84 mg", "value": "(12) %"},
      {"measurement": "Hypoesthesia oral, number of participants", "setting": "double-blind, 84 mg", "value": 2},
      {"measurement": "Insomnia, number of participants", "setting": "double-blind, 84 mg", "value": 0},
      {"measurement": "Nasal discomfort, % of participants", "setting": "double-blind, 84 mg", "value": "(6) %"},
      {"measurement": "Nasal discomfort, number of participants", "setting": "double-blind, 84 mg", "value": 1},
      {"measurement": "Nausea, % of participants", "setting": "double-blind, 84 mg", "value": "(24) %"},
      {"measurement": "Nausea, number of participants", "setting": "double-blind, 84 mg", "value": 4},
      {"measurement": "Oropharyngeal pain, % of participants", "setting": "double-blind, 84 mg", "value": "(12) %"},
      {"measurement": "Oropharyngeal pain, number of participants", "setting": "double-blind, 84 mg", "value": 2},
      {"measurement": "Polyuria, number of participants", "setting": "double-blind, 84 mg", "value": 0},
      {"measurement": "Sedation, % of participants", "setting": "double-blind, 84 mg", "value": "(6) %"},
      {"measurement": "Sedation, number of participants", "setting": "double-blind, 84 mg", "value": 1},
      {"measurement": "Throat irritation, % of participants", "setting": "double-blind, 84 mg", "value": "(12) %"},
      {"measurement": "Throat irritation, number of participants", "setting": "double-blind, 84 mg", "value": 2},
      {"measurement": "Total with events, % of participants", "setting": "double-blind, 84 mg", "value": "(88) %"},
      {"measurement": "Total with events, number of participants", "setting": "double-blind, 84 mg", "value": 15},
      {"measurement": "Tunnel vision, % of participants", "setting": "double-blind, 84 mg", "value": "(12) %"},
      {"measurement": "Tunnel vision, number of participants", "setting": "double-blind, 84 mg", "value": 2},
      {"measurement": "Vertigo, % of participants", "setting": "double-blind, 84 mg", "value": "(6) %"},
      {"measurement": "Vertigo, number of participants", "setting": "double-blind, 84 mg", "value": 1},
      {"measurement": "Vision blurred, % of participants", "setting": "double-blind, 84 mg", "value": "(12) %"},
      {"measurement": "Vision blurred, number of participants", "setting": "double-blind, 84 mg", "value": 2},
      {"measurement": "Dissociation, % of participants", "setting": "double-blind, esketamine Total", "value": "(20) %"},
      {"measurement": "Dissociation, number of participants", "setting": "double-blind, esketamine Total", "value": 11},
      {"measurement": "Dissociative disorder, % of participants", "setting": "double-blind, esketamine Total", "value": "(13) %"},
      {"measurement": "Dissociative disorder, number of participants", "setting": "double-blind, esketamine Total", "value": 7},
      {"measurement": "Dizziness, % of participants", "setting": "double-blind, esketamine Total", "value": "(36) %"},
      {"measurement": "Dizziness, number of participants", "setting": "double-blind, esketamine Total", "value": 20},
      {"measurement": "Dysgeusia, % of participants", "setting": "double-blind, esketamine Total", "value": "(18) %"},
      {"measurement": "Dysgeusia, number of participants", "setting": "double-blind, esketamine Total", "value": 10},
      {"measurement": "Feeling abnormal, % of participants", "setting": "double-blind, esketamine Total", "value": "(7) %"},
      {"measurement": "Feeling abnormal, number of participants", "setting": "double-blind, esketamine Total", "value": 4},
      {"measurement": "Headache, % of participants", "setting": "double-blind, esketamine Total", "value": "(21) %"},
      {"measurement": "Headache, number of participants", "setting": "double-blind, esketamine Total", "value": 12},
      {"measurement": "Hypersomnia, % of participants", "setting": "double-blind, esketamine Total", "value": "(4) %"},
      {"measurement": "Hypersomnia, number of participants", "setting": "double-blind, esketamine Total", "value": 2},
      {"measurement": "Hypertension, % of participants", "setting": "double-blind, esketamine Total", "value": "(5) %"},
      {"measurement": "Hypertension, number of participants", "setting": "double-blind, esketamine Total", "value": 3},
      {"measurement": "Hypoesthesia oral, % of participants", "setting": "double-blind, esketamine Total", "value": "(13) %"},
      {"measurement": "Hypoesthesia oral, number of participants", "setting": "double-blind, esketamine Total", "value": 7},
      {"measurement": "Insomnia, % of participants", "setting": "double-blind, esketamine Total", "value": "(4) %"},
      {"measurement": "Insomnia, number of participants", "setting": "double-blind, esketamine Total", "value": 2},
      {"measurement": "Nasal discomfort, % of participants", "setting": "double-blind, esketamine Total", "value": "(5) %"},
      {"measurement": "Nasal discomfort, number of participants", "setting": "double-blind, esketamine Total", "value": 3},
      {"measurement": "Nausea, % of participants", "setting": "double-blind, esketamine Total", "value": "(18) %"},
      {"measurement": "Nausea, number of participants", "setting": "double-blind, esketamine Total", "value": 10},
      {"measurement": "Oropharyngeal pain, % of participants", "setting": "double-blind, esketamine Total", "value": "(5) %"},
      {"measurement": "Oropharyngeal pain, number of participants", "setting": "double-blind, esketamine Total", "value": 3},
      {"measurement": "Polyuria, % of participants", "setting": "double-blind, esketamine Total", "value": "(4) %"},
      {"measurement": "Polyuria, number of participants", "setting": "double-blind, esketamine Total", "value": 2},
      {"measurement": "Sedation, % of participants", "setting": "double-blind, esketamine Total", "value": "(7) %"},
      {"measurement": "Sedation, number of participants", "setting": "double-blind, esketamine Total", "value": 4},
      {"measurement": "Throat irritation, % of participants", "setting": "double-blind, esketamine Total", "value": "(5) %"},
      {"measurement": "Throat irritation, number of participants", "setting": "double-blind, esketamine Total", "value": 3},
      {"measurement": "Total with events, % of participants", "setting": "double-blind, esketamine Total", "value": "(75) %"},
      {"measurement": "Total with events, number of participants", "setting": "double-blind, esketamine Total", "value": 42},
      {"measurement": "Tunnel vision, % of participants", "setting": "double-blind, esketamine Total", "value": "(4) %"},
      {"measurement": "Tunnel vision, number of participants", "setting": "double-blind, esketamine Total", "value": 2},
      {"measurement": "Vertigo, % of participants", "setting": "double-blind, esketamine Total", "value": "(7) %"},
      {"measurement": "Vertigo, number of participants", "setting": "double-blind, esketamine Total", "value": 4},
      {"measurement": "Vision blurred, % of participants", "setting": "double-blind, esketamine Total", "value": "(4) %"},
      {"measurement": "Vision blurred, number of participants", "setting": "double-blind, esketamine Total", "value": 2},
      {"measurement": "deaths", "setting": "in vivo", "value": "No death"},
      {"measurement": "adverse event incidence: dizziness", "setting": "open-label phase", "value": 38.6, "unit": "%"},
      {"measurement": "adverse event incidence: dysgeusia", "setting": "open-label phase", "value": 22.8, "unit": "%"},
      {"measurement": "adverse event incidence: headache", "setting": "open-label phase", "value": 14.0, "unit": "%"},
      {"measurement": "adverse event incidence: nausea", "setting": "open-label phase", "value": 15.8, "unit": "%"},
      {"measurement": "adverse event incidence: sedation", "setting": "open-label phase", "value": 10.5, "unit": "%"},
      {"measurement": "participants reporting transient dissociative symptoms", "setting": "open-label phase", "value": 24.6, "unit": "%"},
      {"measurement": "participants with adverse events leading to discontinuation of study drug", "setting": "open-label phase", "value": 2, "unit": "%"}
    ]}
  ]
}
